In US20230063109A1, “MIXTURES COMPRISING NITRIFICATION INHIBITORS AND CARRIERS” (BASF SE, priority 2020, published 2023):

Tested on: nitrification in soil (microbial biomass)
Assay: Incubation experiment: measurement of the nitrification-inhibiting effect in soil (NH4—N recovery)
Settings: overall summary of the experiments
Procedure: In all treatments the same nitrogen as well as the same AI (active ingredient) amounts were applied. In case of the two tested nitrification inhibitors DMPP and DMPSA it was 1% NI (nitrification inhibitor) related to the sum of NH2—N and NH4—N of the corresponding carrier fertilizer. In case of physical mixtures, in which only one part of the fertilizers was treated with a NI, the concentrations of the corresponding AI were higher so that the overall amounts of NI were the same as in the control treatment.
100 g soil (incubated at 20° C. for two weeks to activate the microbial biomass) is filled into 500 ml plastic bottles (e.g. soil sampled from the field) and is moistened to 50% water holding capacity. The fertilizers are treated with the respective products containing the compositions and mixtures of the invention in the appropriate concentration.
Granules of the treated fertilizers are evenly distributed to the soil. The amount of fertilizer which is applied corresponds to 10 mg of reduced nitrogen per bottle.
The bottles are capped loosely to allow air exchange. The bottles are then incubated at 20° C. for 28 days.
For analysis, 300 mL of a 1% K2SO4-solution is added to the bottle containing the soil and shaken for 2 hours in a horizontal shaker at 150 rpm. […] The ammonium contents of the filtrates are analyzed with an autoanalyzer at 550 nm (Merck, AA11).

| Substance | inhibition of nitrification (in words) |
| --- | --- |
| 2-(3,4-dimethyl-1H-pyrazol-1-yl)succinic acid and/or 2-(4,5-dimethyl-1H-pyrazol-1-yl)succinic acid [DMPSA] | sufficiently be inhibited |
| 3,4-dimethyl pyrazole phosphate and/or 4,5-dimethyl pyrazole phosphate [DMPP] | sufficiently be inhibited |
